Results: patent US20140073651A1, “BENZAMIDE DERIVATIVES AS P2X7 RECEPTOR ANTAGONISTS” (Actelion Pharmaceuticals Ltd., priority 2011, published 2014)

The compounds below were run against T1, human recombinant P2X7 receptor (Homo sapiens, UniProt Q99572) (assay: YO-PRO assay (YO-PRO-1 uptake) in HEK cells stably expressing P2X7). Conditions: HEK-293 cells expressing human recombinant P2X7 receptor; ATP 250 μM, 90 minutes; YO-PRO-1 fluorescence (FLIPR tetra); read-out: IC50 (antagonistic activity with respect to the P2X7 receptor).
T1 construct: expressed in transfected cells
T1 sequence (Q99572 1-595): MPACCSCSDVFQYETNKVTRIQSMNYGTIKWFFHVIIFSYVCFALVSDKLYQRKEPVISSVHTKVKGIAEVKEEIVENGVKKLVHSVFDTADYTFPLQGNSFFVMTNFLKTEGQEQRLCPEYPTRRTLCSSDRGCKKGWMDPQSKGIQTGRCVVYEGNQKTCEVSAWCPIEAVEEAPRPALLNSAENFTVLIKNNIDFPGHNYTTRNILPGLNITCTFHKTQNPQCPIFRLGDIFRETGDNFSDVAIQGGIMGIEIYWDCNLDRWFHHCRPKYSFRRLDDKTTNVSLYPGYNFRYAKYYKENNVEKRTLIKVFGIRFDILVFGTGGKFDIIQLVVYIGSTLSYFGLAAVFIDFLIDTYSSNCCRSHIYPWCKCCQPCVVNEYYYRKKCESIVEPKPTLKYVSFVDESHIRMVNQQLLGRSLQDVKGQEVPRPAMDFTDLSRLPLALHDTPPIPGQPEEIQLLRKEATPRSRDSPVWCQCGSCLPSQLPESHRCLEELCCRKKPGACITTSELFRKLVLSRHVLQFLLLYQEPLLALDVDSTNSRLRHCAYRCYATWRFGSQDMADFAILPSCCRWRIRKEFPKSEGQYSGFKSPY
Format: cell-based
Outline: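 Antagonist serially diluted (duplicates) on P2X7-expressing HEK cells in buffer with 0.5 μM YO-PRO-1; dye uptake followed on FLIPR Tetra over four time points. IC50 from maximum fluorescence intensity versus compound concentration.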
With `COc1nccc(Sc2ccc(Cl)c(C(=O)NCC3(O)CCCCC3)c2)n1` [Example 139, 2-Chloro-N-(1-hydroxy-cyclohexylmethyl)-5-(2-methoxy-pyrimidin-4-ylsulfanyl)-benzamide] the IC50 was 74 nM.
Work on `CN(C)c1nccc(N(C)c2ccc(Cl)c(C(=O)NCC3(O)CCCCC3)c2)n1` [Example 15, 2-Chloro-5-[(2-dimethylamino-pyrimidin-4-yl)-methyl-amino]-N-(1-hydroxy-cyclohexylmethyl)-benzamide] yielded an IC50 of 177 nM.
`COc1cnnc(Oc2ccc(Cl)c(C(=O)NCC3(O)CCCCC3)c2)c1` [Example 131, 2-Chloro-N-(1-hydroxy-cyclohexylmethyl)-5-(5-methoxy-pyridazin-3-yloxy)-benzamide] was tested, and the IC50 was 206 nM.
For `CN(c1ccc(Cl)c(C(=O)NCC2(O)CCCCC2)c1)c1cc(Cl)[nH]c(=O)n1` [Example 64, 2-Chloro-5-[(6-chloro-2-oxo-1,2-dihydro-pyrimidin-4-yl)-methyl-amino]-N-(1-hydroxy-cyclohexylmethyl)-benzamide], the IC50 was 902 nM.
Work on `CN(c1ccc(Cl)c(C(=O)NCC2(O)CCCCCCC2)c1)c1ccnc(=O)[nH]1` [Example 48, 2-Chloro-N-(1-hydroxy-cyclooctylmethyl)-5-[methyl-(2-oxo-2,3-dihydro-pyrimidin-4-yl)-amino]-benzamide] yielded an IC50 of 15 nM.
Work on `C[C@@H](NC(=O)c1cc(N(C)c2ccnc(Cl)n2)ccc1Cl)C1CCCCC1` [Example 41, 2-Chloro-5-[(2-chloro-pyrimidin-4-yl)-methyl-amino]-N—((R)-1-cyclohexyl-ethyl)-benzamide] yielded an IC50 of 384 nM.
In the case of `Cn1nccc1Nc1ccc(Cl)c(C(=O)NCC2(O)CCCCC2)c1` [Example 100, 2-Chloro-N-(1-hydroxy-cyclohexylmethyl)-5-(2-methyl-2H-pyrazol-3-ylamino)-benzamide], the IC50 is reported as 217 nM.
`CN(c1ccc(Cl)c(C(=O)NCC2(O)CCCCC2)c1)c1cncc(Cl)n1` [Example 81, 2-Chloro-5-[(6-chloro-pyrazin-2-yl)-methyl-amino]-N-(1-hydroxy-cyclohexylmethyl)-benzamide] gave an IC50 of 245 nM.
In the case of `COc1ccc(Oc2ccc(Cl)c(C(=O)NCC3(O)CCCCC3)c2)nn1` [Example 128, 2-Chloro-N-(1-hydroxy-cyclohexylmethyl)-5-(6-methoxy-pyridazin-3-yloxy)-benzamide], the IC50 is reported as 30 nM.
For `COc1nccc(S(=O)(=O)c2ccc(Cl)c(C(=O)NCC3(O)CCCCC3)c2)n1` [Example 141, 2-Chloro-N-(1-hydroxy-cyclohexylmethyl)-5-(2-methoxy-pyrimidine-4-sulfonyl)-benzamide], the IC50 was 3890 nM.
`CCCN(c1ccc(Cl)c(C(=O)NCC2(O)CCCCC2)c1)c1cc[nH]c(=O)n1` [Example 23, 2-Chloro-N-(1-hydroxy-cyclohexylmethyl)-5-[(2-oxo-1,2-dihydro-pyrimidin-4-yl)-propyl-amino]-benzamide] gave an IC50 of 18 nM.
In the case of `COc1nccc(N(C)c2ccc(Cl)c(C(=O)NCC3(O)CCCCC3)c2)n1` [Example 13, 2-Chloro-N-(1-hydroxy-cyclohexylmethyl)-5-[(2-methoxy-pyrimidin-4-yl)-methyl-amino]-benzamide], the IC50 is reported as 200 nM.
With `O=C(NCC1(O)CCCCC1)c1cc(S(=O)(=O)c2ccccn2)ccc1Cl` [Example 134, 2-Chloro-N-(1-hydroxy-cyclohexylmethyl)-5-(pyridine-2-sulfonyl)-benzamide] the IC50 was 105 nM.
In the case of `CSc1ccnc(N(C)c2ccc(Cl)c(C(=O)NCC3(O)CCCCC3)c2)n1` [Example 73, 2-Chloro-N-(1-hydroxy-cyclohexylmethyl)-5-[methyl-(4-methylsulfanyl-pyrimidin-2-yl)-amino]-benzamide], the IC50 is reported as 322 nM.
With `O=C(NCC1(O)CCCCC1)c1cc(N(Cc2ccccc2)c2ccnc(Cl)n2)ccc1Cl` [Example 29, 5-[Benzyl-(2-chloro-pyrimidin-4-yl)-amino]-2-chloro-N-(1-hydroxy-cyclohexylmethyl)-benzamide] the IC50 was 456 nM.
`O=C(NCC1(O)CCCCC1)c1cc(Oc2ccnc(=O)[nH]2)ccc1Cl` [Example 119, 2-Chloro-N-(1-hydroxy-cyclohexylmethyl)-5-(2-oxo-2,3-dihydro-pyrimidin-4-yloxy)-benzamide] showed an IC50 of 796 nM.
`COc1nccc([S+]([O-])c2ccc(Cl)c(C(=O)NCC3(O)CCCCC3)c2)n1` (racemic) [Example 140, rac-2-Chloro-N-(1-hydroxy-cyclohexylmethyl)-5-(2-methoxy-pyrimidine-4-sulfinyl)-benzamide] was tested, and the IC50 was 914 nM.
`O=C(NCC1(O)CCC(F)(F)CC1)c1cc(Sc2cc[nH]c(=O)n2)ccc1Cl` [Example 138, 2-Chloro-N-(4,4-difluoro-1-hydroxy-cyclohexylmethyl)-5-(2-oxo-1,2-dihydro-pyrimidin-4-ylsulfanyl)-benzamide] gave an IC50 of 10 nM.
`O=C(NCC1(O)CCCCC1)c1cc(Nc2ccccc2)ccc1Cl` [Example 1, 2-Chloro-N-(1-hydroxy-cyclohexylmethyl)-5-phenylamino-benzamide] was tested, and the IC50 was 111 nM.
`CSc1nccc(Cc2ccc(Cl)c(C(=O)NCC3(O)CCCCC3)c2)n1` [Example 146, 2-Chloro-N-(1-hydroxy-cyclohexylmethyl)-5-(2-methylsulfanyl-pyrimidin-4-ylmethyl)-benzamide] was tested, and the IC50 was 400 nM.
`O=C(NCC1(O)CCCCC1)c1cc(Nc2ccnc(O)n2)ccc1Cl` [Example 16, 2-Chloro-N-(1-hydroxy-cyclohexylmethyl)-5-(2-hydroxypyrimidin-4-ylamino)-benzamide] was tested, and the IC50 was 73 nM.
`O=C(NCC1(O)CCCCC1)c1cc(Oc2cc(F)ccn2)ccc1Cl` [Example 103, 2-Chloro-5-(4-fluoro-pyridin-2-yloxy)-N-(1-hydroxy-cyclohexylmethyl)-benzamide] was tested, and the IC50 was 46 nM.
Work on `O=C(NCC1(O)CCCCC1)c1cc(Oc2cncc(=O)[nH]2)ccc1Cl` [Example 126, 2-Chloro-N-(1-hydroxy-cyclohexylmethyl)-5-(6-oxo-1,6-dihydro-pyrazin-2-yloxy)-benzamide] yielded an IC50 of 461 nM.
Compound `COc1nccc(Oc2ccc(Cl)c(C(=O)NCC3(O)CCCCC3)c2)n1` [Example 120, 2-Chloro-N-(1-hydroxy-cyclohexylmethyl)-5-(2-methoxy-pyrimidin-4-yloxy)-benzamide] has an IC50 of 111 nM.
`O=C(NCC1(O)CCCCC1)c1cc(N(CCOc2ccccc2)c2cc[nH]c(=O)n2)ccc1Cl` [Example 39, 2-Chloro-N-(1-hydroxy-cyclohexylmethyl)-5-[(2-oxo-1,2-dihydro-pyrimidin-4-yl)-(2-phenoxy-ethyl)-amino]-benzamide] gave an IC50 of 378 nM.
In the case of `O=C(NCC1(O)CCCCC1)c1cc(Oc2ccnc(Cl)c2)ccc1Cl` [Example 104, 2-Chloro-5-(2-chloro-pyridin-4-yloxy)-N-(1-hydroxy-cyclohexylmethyl)-benzamide], the IC50 is reported as 100 nM.
Compound `CN(c1ccc(Cl)c(C(=O)NCC2(O)CCCCC2)c1)c1cncc(=O)[nH]1` [Example 85, 2-Chloro-N-(1-hydroxy-cyclohexylmethyl)-5-[methyl-(6-oxo-1,6-dihydro-pyrazin-2-yl)-amino]-benzamide] has an IC50 of 177 nM.
Work on `CN(c1ccc(Cl)c(C(=O)NCC2(O)CCCC2)c1)c1ccnc(Cl)n1` [Example 49, 2-Chloro-5-[(2-chloro-pyrimidin-4-yl)-methyl-amino]-N-(1-hydroxy-cyclopentylmethyl)-benzamide] yielded an IC50 of 1120 nM.
Compound `O=C(NCC1(O)CCCCC1)c1cc(Cc2cc[nH]c(=O)n2)ccc1Cl` [Example 147, 2-Chloro-N-(1-hydroxy-cyclohexylmethyl)-5-(2-oxo-1,2-dihydro-pyrimidin-4-ylmethyl)-benzamide] has an IC50 of 123 nM.
`CC(C)CN(c1ccc(Cl)c(C(=O)NCC2(O)CCCCC2)c1)c1ccnc(Cl)n1` [Example 26, 2-Chloro-5-[(2-chloro-pyrimidin-4-yl)-isobutyl-amino]-N-(1-hydroxy-cyclohexylmethyl)-benzamide] showed an IC50 of 317 nM.
Work on `COCCN(c1cncnc1)c1ccc(Cl)c(C(=O)NCC2(O)CCCCC2)c1` [Example 77, 2-Chloro-N-(1-hydroxy-cyclohexylmethyl)-5-[(2-methoxy-ethyl)-pyrimidin-5-yl-amino]-benzamide] yielded an IC50 of 1460 nM.
`CN(c1ccc(Cl)c(C(=O)NCC2(O)CCCCCCC2)c1)c1ccnc(Cl)n1` [Example 47, 2-Chloro-5-[(2-chloro-pyrimidin-4-yl)-methyl-amino]-N-(1-hydroxy-cyclooctylmethyl)-benzamide] gave an IC50 of 116 nM.
With `CN(c1ccc(Cl)c(C(=O)NCC2(O)CCCCC2)c1)c1cnccn1` [Example 79, 2-Chloro-N-(1-hydroxy-cyclohexylmethyl)-5-(methyl-pyrazin-2-yl-amino)-benzamide] the IC50 was 352 nM.
`O=C(NCC1(O)CCCCC1)c1cc(Oc2ccc(=O)[nH]n2)ccc1Cl` [Example 129, 2-Chloro-N-(1-hydroxy-cyclohexylmethyl)-5-(6-oxo-1,6-dihydro-pyridazin-3-yloxy)-benzamide] was tested, and the IC50 was 80 nM.
`CN(c1ccc(Cl)c(C(=O)NCC2(O)CCCCC2)c1)c1ccc(F)cc1F` [Example 7, 2-Chloro-5-[(2,4-difluoro-phenyl)-methyl-amino]-N-(1-hydroxy-cyclohexylmethyl)-benzamide] showed an IC50 of 876 nM.
